From patent publication US9624216B2, “Quinolinone five-membered heterocyclic compounds as mutant-isocitrate dehydrogenase inhibitors” (Forma Therapeutics, Inc., priority 2015, dated 2017)

What was measured:
[1] = biological target: IDH1-R132H recombinant protein (Homo sapiens, UniProt O75874, R132H); assay: IDH1-R132H enzymatic assay (NADPH consumption, diaphorase/resazurin readout); type: biochemical; conditions: 30 nM IDH1-R132H, inhibition of NADPH consumption; read-out: Enzyme IDH1 R132H IC50
Description: (§1) IDH1-R132H and IDH1-R132C Enzymatic Assay
(§2) Assays were performed in a 384-well black plate. An aliquot of 250 nL of compound was incubated with 10 μL of 30 nM IDH1-R132H or 10 nM IDH1-R132C recombinant protein in assay buffer (50 mM Tris pH=7.5, 150 mM NaCl, 5 mM MgCl2, 0.1% (w/v) Bovine Serum Albumin, and 0.01% Triton X-100) in each well at 25° C. for 15 minutes. After the plate was centrifuged briefly, an aliquot of 10 μL of 2 mM α-ketoglutarate and 20 μM NADPH solution prepared in assay buffer was then added to each well and the reaction was maintained at 25° C. for 45 minutes. An aliquot of 10 μL of diaphorase solution (0.15 U/mL diaphorase and 30 μM Resazurin in assay buffer) was added to each well. The plate was maintained at 25° C. for 15 minutes and then read on a plate reader with excitation and emission wavelengths at 535 nm and 590 nm, respectively. The IC50 of a given compound was calculated by fitting the dose response curve of inhibition of NADPH consumption at a given concentration with the four parameter logistic equation.

[2] = biological target: T1, HCT116 isogenic IDH1-R132C mutant cells (Homo sapiens, UniProt O75874, R132C); assay: Cellular 2-HG assay using HCT116 mutant IDH1 cells (R132C); type: cell-based; conditions: cellular 2-HG inhibition, 24 hours, RapidFire mass spectrometry
T1 construct: HCT116 isogenic IDH1-R132H and IDH1-R132C mutant cells; endogenous in cells; host or cells: HCT116 isogenic IDH1-R132C mutant cells (kept under G418)
Description: (§3) Cellular 2-HG Assay Using HCT116 Mutant IDH1 Cells
(§4) HCT116 isogenic IDH1-R132H and IDH1-R132C mutant cells were cultured in growth media (McCoy's 5A, 10% fetal bovine serum, 1× antibiotic-antimycotic solution and 0.3 mg/mL G418) in 5% CO2 in an incubator at 37° C. To prepare the assay, cells were trypsinized and resuspended in assay media (McCoy's 5A with no L-glutamine, 10% fetal bovine serum, 1× antibiotic-antimycotic solution and 0.3 mg/mL G418). An aliquot of 10,000 cells/100 μL was transferred to each well of a clear 96-well tissue culture plate. The cells were incubated in 5% CO2 at 37° C. in an incubator overnight to allow for proper cell attachment. An aliquot of 50 μL of compound containing assay media were then added to each well and the assay plate was kept in 5% CO2 at 37° C. in an incubator for 24 hours. The media was then removed from each well and 150 μL of a methanol/water mixture (80/20 v/v) was added to each well. The plates were kept at −80° C. freezer overnight to allow for complete cell lysis. An aliquot of 125 μL of extracted supernatant was analyzed by RapidFire high-throughout-mass spectrometry (Agilent) to determine the cellular 2-HG level. The IC50 of a given compound was calculated by fitting the dose response curve of cellular 2-HG inhibition at a given concentration with the four parameter logistic equation

[3] = biological target: IDH1-R132C recombinant protein (Homo sapiens, UniProt O75874, R132C); assay: IDH1-R132C enzymatic assay (NADPH consumption, diaphorase/resazurin readout); type: biochemical; conditions: 10 nM IDH1-R132C, inhibition of NADPH consumption; read-out: Enzyme IDH1 R132C IC50
Description: as §1, §2

[4] = biological target: T2, HCT116 isogenic IDH1-R132H mutant cells (Homo sapiens, UniProt O75874, R132H); assay: Cellular 2-HG assay using HCT116 mutant IDH1 cells (R132H); type: cell-based; conditions: cellular 2-HG inhibition, 24 hours, RapidFire mass spectrometry
T2 construct: HCT116 isogenic IDH1-R132H and IDH1-R132C mutant cells; endogenous in cells; host or cells: HCT116 isogenic IDH1-R132H mutant cells (kept under G418)
Description: as §3, §4

T2 sequence (O75874 2-414 R132H limits assumed): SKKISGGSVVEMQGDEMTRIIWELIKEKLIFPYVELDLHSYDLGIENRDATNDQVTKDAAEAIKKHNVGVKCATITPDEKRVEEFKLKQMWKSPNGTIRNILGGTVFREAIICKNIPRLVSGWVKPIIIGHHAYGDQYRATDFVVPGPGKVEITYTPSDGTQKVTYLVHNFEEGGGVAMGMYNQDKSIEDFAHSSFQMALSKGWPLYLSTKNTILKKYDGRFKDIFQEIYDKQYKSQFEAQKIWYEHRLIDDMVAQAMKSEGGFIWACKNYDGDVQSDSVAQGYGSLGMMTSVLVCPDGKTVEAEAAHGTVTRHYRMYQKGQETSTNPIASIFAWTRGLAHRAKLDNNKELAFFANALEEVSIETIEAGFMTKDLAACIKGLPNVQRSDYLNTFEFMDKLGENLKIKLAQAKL
IDH1-R132H recombinant protein, sequence (O75874 whole entry R132H): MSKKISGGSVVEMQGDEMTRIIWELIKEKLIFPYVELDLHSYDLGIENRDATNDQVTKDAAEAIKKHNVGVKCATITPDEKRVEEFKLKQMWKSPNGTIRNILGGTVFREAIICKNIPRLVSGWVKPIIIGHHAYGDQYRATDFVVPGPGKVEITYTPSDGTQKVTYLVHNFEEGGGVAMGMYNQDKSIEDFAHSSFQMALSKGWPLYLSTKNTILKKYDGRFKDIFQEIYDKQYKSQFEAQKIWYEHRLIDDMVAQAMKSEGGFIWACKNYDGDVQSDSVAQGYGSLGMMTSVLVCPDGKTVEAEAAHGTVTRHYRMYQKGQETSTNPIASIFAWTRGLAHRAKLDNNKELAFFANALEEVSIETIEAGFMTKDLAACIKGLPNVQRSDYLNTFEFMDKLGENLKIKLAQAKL
IDH1-R132C recombinant protein, sequence (O75874 whole entry R132C): as the sequence (O75874 whole entry R132H) above, with H132C counted along it
T1 sequence (O75874 2-414 R132C limits assumed): as the sequence (O75874 2-414 R132H limits assumed) above, with H131C counted along it

CC(Nc1ncc(C#N)s1)c1cc2cc(Cl)c(OCc3ccccn3)cc2[nH]c1=O (racemic) [Compound I-3, 2-((1-(6-chloro-2-oxo-7-(pyridin-2-ylmethoxy)-1,2-dihydroquinolin-3-yl)ethyl)amino)thiazole-5-carbonitrile]
IC50 [1]: < 100 nM
IC50 [2]: < 100 nM
IC50 [3]: 100 to 1000 nM
IC50 [4]: 100 to 1000 nM

C[C@H](Nc1ncc(C#N)s1)c1cc2cc(Cl)ccc2[nH]c1=O [Compound I-1, (S)-2-((1-(6-chloro-2-oxo-1,2-dihydroquinolin-3-yl)ethyl)amino)thiazole-5-carbonitrile]
melting point: 211 to 213 °C (dec.)
IC50 [1]: < 100 nM
IC50 [2]: 100 to 1000 nM
IC50 [3]: 100 to 1000 nM
IC50 [4]: 100 to 1000 nM

COc1cc2[nH]c(=O)c(C(C)Nc3ncc(C#N)s3)cc2cc1Cl (stereo not drawn) [Compound I-2, 2-((1-(6-chloro-7-methoxy-2-oxo-1,2-dihydroquinolin-3-yl)ethyl)amino)thiazole-5-carbonitrile]
IC50 [1]: < 100 nM
IC50 [2]: 100 to 1000 nM
IC50 [3]: 100 to 1000 nM
IC50 [4]: < 100 nM

C[C@H](Nc1ncc(C#N)s1)c1cc2cc(Cl)c(OCc3ccccn3)cc2[nH]c1=O [Compound I-4, (S)-2-((1-(6-chloro-2-oxo-7-(pyridin-2-ylmethoxy)-1,2-dihydroquinolin-3-yl)ethyl)amino)thiazole-5-carbonitrile]
IC50 [1]: < 100 nM
IC50 [2]: < 100 nM
IC50 [3]: < 100 nM
IC50 [4]: < 100 nM

C[C@@H](Nc1ncc(C#N)s1)c1cc2cc(Cl)c(OCc3ccccn3)cc2[nH]c1=O [Compound I-5, (R)-2-((1-(6-chloro-2-oxo-7-(pyridin-2-ylmethoxy)-1,2-dihydroquinolin-3-yl)ethyl)amino)thiazole-5-carbonitrile]
IC50 [1]: 100 to 1000 nM
IC50 [3]: 1000 to 10000 nM

CC(Nc1ncc(C#N)s1)c1cc2cc(Cl)cnc2[nH]c1=O (stereo not drawn) [Compound I-6, 2-((1-(6-chloro-2-oxo-1,2-dihydro-1,8-naphthyridin-3-yl)ethyl)amino)thiazole-5-carbonitrile]
IC50 [1]: 100 to 1000 nM

Cc1nc(N[C@@H](C)c2cc3cc(Cl)ccc3[nH]c2=O)sc1C#N [Compound I-7, (S)-2-((1-(6-chloro-2-oxo-1,2-dihydroquinolin-3-yl)ethyl)amino)-4-methylthiazole-5-carbonitrile]
IC50 [1]: < 100 nM
IC50 [2]: 100 to 1000 nM
IC50 [3]: 100 to 1000 nM
IC50 [4]: < 100 nM

CC(=O)Nc1cnc(N[C@@H](C)c2cc3cc(Cl)ccc3[nH]c2=O)s1 [Compound I-8, (S)-N-(2-((1-(6-chloro-2-oxo-1,2-dihydroquinolin-3-yl)ethyl)amino)thiazol-5-yl)acetamide]
IC50 [1]: 1000 to 10000 nM
IC50 [3]: > 10000 nM

CCOC(=O)c1sc(N[C@@H](C)c2cc3cc(Cl)ccc3[nH]c2=O)nc1C [Compound I-9, (S)-ethyl 2-((1-(6-chloro-2-oxo-1,2-dihydroquinolin-3-yl)ethyl)amino)-4-methylthiazole-5-carboxylate]
IC50 [1]: 1000 to 10000 nM

C[C@H](Nc1ncc(C(N)=O)s1)c1cc2cc(Cl)ccc2[nH]c1=O [Compound I-10, (S)-2-((1-(6-Chloro-2-oxo-1,2-dihydroquinolin-3-yl)ethyl)amino)thiazole-5-carboxamide]
IC50 [1]: 100 to 1000 nM
IC50 [3]: 1000 to 10000 nM

Cc1nc(N[C@@H](C)c2cc3cc(Cl)ccc3[nH]c2=O)sc1C(N)=O [Compound I-11, (S)-2-((1-(6-chloro-2-oxo-1,2-dihydroquinolin-3-yl)ethyl)amino)-4-methylthiazole-5-carboxamide]
IC50 [1]: < 100 nM
IC50 [2]: 100 to 1000 nM
IC50 [3]: 100 to 1000 nM
IC50 [4]: < 100 nM

C[C@H](Nc1nsc(N2CCOC2=O)n1)c1cc2cc(Cl)ccc2[nH]c1=O [Compound I-12, 6-chloro-3-[(1S)-1-{[5-(2-oxo-1,3-oxazolidin-3-yl)-1,2,4-thiadiazol-3-yl]amino}ethyl]-1,2-dihydroquinolin-2-one]
IC50 [1]: > 10000 nM

O=c1[nH]c2ccc(Cl)cc2cc1CNc1nc(-c2ccccn2)cs1 [Compound I-13, 6-chloro-3-({[4-(pyridin-2-yl)-1,3-thiazol-2-yl]amino}methyl)-1,2-dihydroquinolin-2-one]
IC50 [1]: 1000 to 10000 nM

O=c1[nH]c2ccc(Cl)cc2cc1CNc1nc(-c2ccc(F)c(F)c2)cs1 [Compound I-14, 6-chloro-3-({[4-(3,4-difluorophenyl)-1,3-thiazol-2-yl]amino}methyl)-1,2-dihydroquinolin-2-one]
IC50 [1]: 1000 to 10000 nM

COc1ccc2[nH]c(=O)c(CNc3nc4ccccc4s3)cc2c1 [Compound I-15, 3-{[(1,3-benzothiazol-2-yl)amino]methyl}-6-methoxy-1,2-dihydroquinolin-2-one]
IC50 [1]: > 10000 nM

CCc1c(C)sc(NCc2cc3cc(Cl)ccc3[nH]c2=O)c1C#N [Compound I-16, 2-{[(6-chloro-2-oxo-1,2-dihydroquinolin-3-yl)methyl]amino}-4-ethyl-5-methylthiophene-3-carbonitrile]
IC50 [1]: > 10000 nM

COc1ccc2[nH]c(=O)c(CNc3nc(C)c(C)s3)cc2c1 [Compound I-17, 3-{[(dimethyl-1,3-thiazol-2-yl)amino]methyl}-6-methoxy-1,2-dihydroquinolin-2-one]
IC50 [1]: > 10000 nM
